Results reported in US5472958A, “2-((nitro)phenoxymethyl) heterocyclic compounds that enhance cognitive function” (Abbott Laboratories, priority 1994, dated 1995).
Counter-ions that a name gives are not always drawn. Like-named read-outs stand apart in the source and are kept apart here.

How the values were obtained:
[1] = biological target: neuronal nicotinic cholinergic channel receptor; assay: [3H]-cytisine binding to neuronal nicotinic cholinergic channel receptors, crude synaptic membranes from whole rat brain
Experimental: Binding of [^3 H]-cytisine ([^3 H]-CYT) to nicotinic receptors was accomplished using crude synaptic membrane preparations from whole rat brain (Pabreza et al., Molecular Pharmacol., 1990, 39:9). Washed membranes were stored at -80° C. prior to use. Frozen aliquots were slowly thawed and resuspended in 20 volumes of buffer (containing: 120 mM NaCl, 5 mM KCl, 2 mM MgCl2, 2 mM CaCl2 and 50 mM Tris-Cl, pH 7.4 @4° C.). After centrifuging at 20,000×g for 15 minutes, the pellets were resuspended in 30 volumes of buffer. Homogenate (containing 125-150 μg protein) was added to triplicate tubes containing concentrations of test compound and [^3 H]-CYT (1.25 nM) in a final volume of 500 μL. Samples were incubated for 60 minutes at 4° C., then rapidly filtered through Whatman GF/B filters presoaked in 0.5% polyethylimine using 3×4 mL of ice-cold buffer. The filters are counted in 4 mL of Ecolume® (ICN).

CD1 mice = assay: Elevated plus-maze, mouse (anxiolytic activity); assay type: in vivo; details: for Mouse EPM, improvement in performance at the dose range tested: doses in brackets, time in open arms, 5 min test
Source text: (§1) The elevated plus-maze is a conflict test that probes anxiolytic activity of test compounds (Lister, Psychopharmacology, 1987, 92:180). It is based on the fact that exposure of an animal to an elevated open arm leads to an avoidance response considerably stronger than that evoked by exposure to an enclosed arm.
The apparatus required to perform this test in mice is made of plywood and consists of two open arms (17×8 cm) and two enclosed arms (17×8×15 cm) extending from a central platform (8×8 cm). It is mounted on a plywood base rising 39 cm above the floor. Mice are released on the central platform and the time spent in the open and enclosed arms is recorded during a 5 minute test period. The test compounds were administered to CD1 mice 15 minutes before the test.

male Wistar rats = assay: Elevated plus-maze, rat (anxiolytic activity); assay type: in vivo; details: doses in brackets; time in open arms
Source text: as §1
The same protocol was applied in rats (male Wistar strain), but a larger maze was used (open arms 50×10 cm, enclosed arms 50×10×40 cm) raised 50 cm above the floor.

Male CD-1 mice = assay: Analgesia testing, automated hot-plate (55° C.); assay type: in vivo, mouse; details: latency to tenth jump; morphine at 12, Example 3 at 19 umol/kg
Experimental: Analgesia was measured using an automated hot-plate analgesia monitor (model #AHP16AN, Omnitech Electronics, Inc., Columbus, Ohio). The temperature of the hot-plate was maintained at 55° C. Male CD-1 mice (Charles River, Portage, Mich.) weighing 30 to 35 g were used for all testing. Mice were placed on the hot-plate and the latency to jump (i.e., first 10 jumps) was recorded. Mice were removed from the apparatus either after ten jumps were made or a maximally-allowed time of 240 sec elapsed, whichever occurred first. The design of the apparatus allowed for testing of several animals (e.g., 8) at once. The latency (sec) until the tenth jump was used for statistical analysis. Data (Table 2) were statistically evaluated with ANOVA (StatView II™ program, Abacus Concepts, Inc., Berkeley, Calif.) and compared to the reference standard analgesic morphine.

[2] = cited from earlier work
nicotinic receptors = details: chronic nicotine administration; cited from earlier work
rats = details: acutely- and chronically-administered, rats incl. aged; cited from earlier work
cigarette smokers = details: double-blind studies; cited from earlier work
[3] = in vivo; cited from earlier work
[4] = tested on: cardiac muscarinic receptors; details: cited from earlier work
[5] = tested on: cortical muscarinic receptors; details: cited from earlier work
parietotemporal cortex = parietotemporal cortex of humans; cited from earlier work
[6] = [3H]-cytisine (1.25 nM), whole rat brain membranes, 4° C., 60 min

SMILES | Ki [1, 6] [nM] | other results
Fc1cccc(OC[C@@H]2CCCN2)c1 [Example 5, 2(S)-(3-Fluorophenoxymethyl)-pyrrolidine hydrochloride] | 17.2 | –
Fc1cccc(OC[C@H]2CCCN2)c1 [Example 9, 2(R)-(3-Fluorophenoxymethyl)-pyrrolidine hydrochloride] | 11.6 | –
CN1CC[C@@H]1COc1cccc([N+](=O)[O-])c1 [Example 23, (R)-1-methyl-2-(3-(nitro)phenoxymethyl)azetidine hydrochloride] | 29 | –
Cl.O=[N+]([O-])c1cccc(OC[C@@H]2CCCN2)c1 [Example 1, 2(S)-(3-(Nitro)phenoxymethyl)pyrrolidine hydrochloride] | 2.9 | Mouse EPM, improvement in performance at the dose range tested (CD1 mice): significant [0.62-1.9]; Rat EPM, improvement in performance at the dose range tested (male Wistar rats): significant [0.19, 6.2]
CN1CC[C@]23c4c5ccc(O)c4O[C@H]2[C@@H](O)C=C[C@H]3[C@H]1C5 [Morphine, reference compound] | – | Percent change from saline (Male CD-1 mice): 257%
CN1CCC[C@H]1COc1ccc(F)c(F)c1 [Example 14, 2(S)-(3,4-Difluorophenoxymethyl)-1-methylpyrrolidine hydrochloride] | 18 | –
Fc1cccc(OC[C@@H]2CCCN2)c1F [Example 11, 2(S)-(2,3-Difluorophenoxymethyl)pyrrolidine hydrochloride] | 74.3 | –
c1ccc(OC[C@@H]2CCCN2)cc1 [Example 21, 2(S)-(phenoxymethyl)pyrrolidine hydrochloride] | 108 | –
CN1CCC[C@H]1COc1cc(F)cc(F)c1 [Example 8, 2(S)-(3,5-Difluorophenoxymethyl)-1-methyl-pyrrolidine hydrochloride] | 15.7 | –
CN1CCC[C@H]1c1cccnc1 [nicotine] | – | Oral bioavailability [2]: poor oral bioavailability; Up-regulation of the number of receptors (nicotinic receptors): 50-100%; Effect on cognitive function (rats): enhances cognitive function in rats; Suppressing or preventing signs and symptoms of withdrawal vs placebo (cigarette smokers): far superior to a placebo; Anxiolytic properties [3]: anxiolytic properties
CN1CCC[C@H]1COc1cccc(C#N)c1 [Example 19, (S)-2-(3-cyanophenoxymethyl)-1-methylpyrrolidine hydrochloride] | 64 | –
O=[N+]([O-])c1cccc(OC[C@@H]2CCN2)c1 [Example 22, 2(S)-(3-(nitro)phenoxymethyl)azetidine methanesulfonate] | 6.8 | –
CN1CCC[C@H]1COc1cccc(F)c1 [Example 6, 2(S)-(3-Fluorophenoxymethyl)-1-methyl-pyrrolidine hydrochloride] | 5.1 | –
CN1CCC[C@H]1COc1cccc([N+](=O)[O-])c1 [Example 2, 1-Methyl-2(S)-(3-(nitro)phenoxymethyl)pyrrolidine hydrochloride] | 9 | –
Fc1ccc(OC[C@@H]2CCCN2)cc1F [Example 13, 2(S)-(3,4-Difluorophenoxymethyl)pyrrolidine hydrochloride] | 17.5 | –
CC(=O)Nc1cccc(OC[C@@H]2CCCN2)c1 [Example 17, (S)-2-(3-(acetamido)phenoxymethyl)pyrrolidine hydrochloride] | 142 | –
CN1CCC[C@@H]1COc1cccc([N+](=O)[O-])c1 [Example 4, (R)-1-Methyl-2-(3-(nitro)phenoxymethyl)pyrrolidine] | 132 | –
CN1CCCC1c1cccnc1 (single isomer, unassigned; (-)) [(-)-nicotine, reference compound] | – | Ki [1]: […]; Increase in time spent in the open arms of the maze vs saline (CD1 mice; 0.62 and 1.9 μmol/kg, p<0.05, 15 minutes before test): significant increase; Mouse EPM, improvement in performance at the dose range tested (CD1 mice): significant [0.19-0.62]; Rat EPM, improvement in performance at the dose range tested (male Wistar rats): significant [1.9]
CN1CCC[C@H]1COc1ccc(Cl)c(Cl)c1 [Example 16, 2(S)-(3,4-Dichlorophenoxymethyl)-1-methylpyrrolidine hydrochloride] | 112 | –
CN1CCC[C@H]1COc1cccc(Cl)c1 [Example 15, 2(S)-(3-Chlorophenoxymethyl)-1-methylpyrrolidine hydrochloride] | 37.7 | –
CCN1C(=O)CC2(CCN(C)CC2)C1=O [RS-86] | – | Agonism at cardiac muscarinic receptors [4]: full agonist; Agonism at cortical muscarinic receptors [5]: partial agonist; Potency and selectivity for CNS receptors [5]: poor potency and lack of selectivity for CNS receptors
CNC1(C)C2CCC(C2)C1(C)C (stereo not drawn) [mecamylamine] | – | Effect on resting cortical perfusion (parietotemporal cortex): reduces resting cortical perfusion
N#Cc1cccc(OC[C@@H]2CCCN2)c1 [Example 18, (S)-2-(3-cyanophenoxymethyl)pyrrolidine hydrochloride] | 18 | –
Fc1cc(F)cc(OC[C@@H]2CCCN2)c1 [Example 7, 2(S)-(3,5-Difluorophenoxymethyl)pyrrolidine hydrochloride] | 22.3 | –
CN1CCC[C@@H]1COc1cccc(F)c1 [Example 10, 2(R)-(3-Fluorophenoxymethyl)-1-methylpyrrolidine hydrochloride] | 90.7 | –
CN1CCC[C@H]1COc1cccc(F)c1F [Example 12, 2(S)-(2,3-Difluorophenoxymethyl)-1-methylpyrrolidine hydrochloride] | 81.4 | –
Cl.O=[N+]([O-])c1cccc(OC[C@H]2CCCN2)c1 [Example 3, 2(R)-(3-(nitro)phenoxymethyl)pyrrolidine hydrochloride] | 2.5 | Percent change from saline (Male CD-1 mice): 60.7%
